Assay results taken from ChEMBL document CHEMBL1129051, “9-Dihydroxy-2,3,7,11b-tetrahydro-1H-naph[1,2,3-de]isoquinoline: a potent full dopamine D1 agonist containing a rigid-beta-phenyldopamine pharmacophore” (J Med Chem, 1996).

Each compound was assayed against D(2) dopamine receptor (Homo sapiens) (UniProt P14416).
D(2) dopamine receptor (Homo sapiens), sequence (P14416 whole entry): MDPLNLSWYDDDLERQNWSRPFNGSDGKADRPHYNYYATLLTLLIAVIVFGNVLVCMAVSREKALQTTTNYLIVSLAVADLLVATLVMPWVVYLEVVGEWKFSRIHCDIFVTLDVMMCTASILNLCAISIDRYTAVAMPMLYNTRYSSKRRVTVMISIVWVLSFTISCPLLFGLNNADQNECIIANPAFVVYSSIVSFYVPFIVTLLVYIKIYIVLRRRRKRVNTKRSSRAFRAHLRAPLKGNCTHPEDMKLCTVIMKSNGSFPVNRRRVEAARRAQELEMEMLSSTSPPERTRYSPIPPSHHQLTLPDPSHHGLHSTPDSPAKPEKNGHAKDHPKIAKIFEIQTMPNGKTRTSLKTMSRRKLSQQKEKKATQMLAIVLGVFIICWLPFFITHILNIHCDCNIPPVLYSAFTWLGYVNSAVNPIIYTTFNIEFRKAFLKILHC
Description: Hill slope was determined for the compound in D2 receptor binding assay
With `CN(C)CCCN1c2ccccc2Sc2ccc(Cl)cc21` the nH was 0.93.
For `Oc1cc2c(cc1O)[C@H]1c3ccccc3CN[C@@H]1CC2`, the nH was 0.72.

Each compound was assayed against D(1A) dopamine receptor (Homo sapiens) (UniProt P21728) (assay: Hill slope was determined for the compound in D1 receptor binding assay).
D(1A) dopamine receptor (Homo sapiens), sequence (P21728 whole entry): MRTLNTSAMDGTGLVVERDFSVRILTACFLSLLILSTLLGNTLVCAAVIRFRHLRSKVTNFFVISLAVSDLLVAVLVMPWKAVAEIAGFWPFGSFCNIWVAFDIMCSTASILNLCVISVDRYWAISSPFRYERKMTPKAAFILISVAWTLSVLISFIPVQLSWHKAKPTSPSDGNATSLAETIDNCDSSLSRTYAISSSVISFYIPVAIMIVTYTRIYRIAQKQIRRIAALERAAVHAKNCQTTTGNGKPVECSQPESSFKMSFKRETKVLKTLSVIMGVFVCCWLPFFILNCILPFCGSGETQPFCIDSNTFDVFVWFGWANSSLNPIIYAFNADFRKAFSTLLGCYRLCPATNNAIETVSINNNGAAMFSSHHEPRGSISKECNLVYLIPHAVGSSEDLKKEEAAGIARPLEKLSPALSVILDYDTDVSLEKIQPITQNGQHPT
Work on `Oc1cc2c(cc1O)[C@@H](c1ccccc1)CNCC2` yielded a nH of 0.75.
`Oc1ccc2c(c1O)Cc1cccc3c1[C@H]2CNC3` was tested, and the nH was 0.66.
`Oc1cc2c(cc1O)[C@H]1c3ccccc3CN[C@@H]1CC2` showed a nH of 0.65.
Compound `CN1CCc2cc(Cl)c(O)cc2[C@@H](c2ccccc2)C1` has a nH of 1.05.
